Target: T1, electric eel AChE (Electrophorus electricus, UniProt O42275)
Assay: biochemical
Conditions: not given

T1 sequence (O42275 24-633): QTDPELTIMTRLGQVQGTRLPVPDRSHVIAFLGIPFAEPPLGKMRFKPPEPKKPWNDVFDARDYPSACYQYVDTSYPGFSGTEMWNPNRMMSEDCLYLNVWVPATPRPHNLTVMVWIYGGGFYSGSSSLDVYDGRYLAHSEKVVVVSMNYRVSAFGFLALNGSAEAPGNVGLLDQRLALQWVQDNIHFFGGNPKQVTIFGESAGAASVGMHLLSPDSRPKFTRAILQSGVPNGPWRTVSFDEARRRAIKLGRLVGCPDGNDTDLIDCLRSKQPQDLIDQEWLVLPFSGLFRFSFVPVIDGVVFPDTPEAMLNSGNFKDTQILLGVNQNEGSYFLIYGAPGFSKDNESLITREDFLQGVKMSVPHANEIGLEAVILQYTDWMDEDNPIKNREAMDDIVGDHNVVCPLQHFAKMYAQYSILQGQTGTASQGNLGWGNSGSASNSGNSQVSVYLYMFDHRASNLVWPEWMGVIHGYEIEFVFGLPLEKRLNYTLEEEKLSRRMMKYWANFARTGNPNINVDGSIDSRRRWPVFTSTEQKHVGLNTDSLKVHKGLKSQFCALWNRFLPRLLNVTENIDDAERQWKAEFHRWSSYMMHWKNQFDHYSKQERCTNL

First: COc1cc2c(cc1OC)C(=O)C(CC1CCN(Cc3ccccn3)CC1)C2 (centres unmarked) [Analog 1, 5,6-dimethoxy-2-((1-(pyridin-2-ylmethyl)piperidin-4-yl)methyl)-2,3-dihydro-1H-inden-1-one]
Second: COc1cc2c(cc1OC)C(=O)C(CC1CCN(Cc3cccnc3Cl)CC1)C2 (centres unmarked) [Analog 10, 2-((1-((2-chloropyridin-3-yl)methyl)piperidin-4-yl)methyl)-5,6-dimethoxy-2,3-dihydro-1H-inden-1-one]
The IC50 of the first is 1.9-fold higher: 0.793 µM for the first, 0.414 µM for the second. The second is the more potent here.

`COc1cc2c(cc1OC)C(=O)C(CC1CCN(Cc3ccnc(Br)c3)CC1)C2` (centres unmarked) [Analog 6, 2-((1-((2-bromopyridin-4-yl)methyl)piperidin-4-yl)methyl)-5,6-dimethoxy-2,3-dihydro-1H-inden-1-one] and `COc1cc2c(cc1OC)C(=O)C(CC1CCN(Cc3ccnc(Cl)c3)CC1)C2` (centres unmarked) [Analog 5, 2-((1-((2-chloropyridin-4-yl)methyl)piperidin-4-yl)methyl)-5,6-dimethoxy-2,3-dihydro-1H-inden-1-one] are within 1.5-fold of each other in IC50: 1.8 µM for the first, 2.06 µM for the second.

Going from `COc1cc2c(cc1OC)C(=O)C(CC1CCN(Cc3ccncc3)CC1)C2` (centres unmarked) [Analog 3, 5,6-dimethoxy-2-((1-(pyridin-4-ylmethyl)piperidin-4-yl)methyl)-2,3-dihydro-1H-inden-1-one] to `COc1cc2c(cc1OC)C(=O)C(CC1CCN(Cc3cccnc3)CC1)C2` (centres unmarked) [Analog 2, 5,6-dimethoxy-2-((1-(pyridin-3-ylmethyl)piperidin-4-yl)methyl)-2,3-dihydro-1H-inden-1-one], the IC50 falls from 0.334 µM to 0.051 µM (6.5-fold).

First: COc1cc2c(cc1OC)C(=O)C(CC1CCN(Cc3c(Cl)cncc3Cl)CC1)C2 (centres unmarked) [Analog 8, 2-((1-((3,5-dichloropyridin-4-yl)methyl)piperidin-4-yl)methyl)-5,6-dimethoxy-2,3-dihydro-1H-inden-1-one]
Second: COc1cc2c(cc1OC)C(=O)C(CC1CCN(Cc3ccncc3Cl)CC1)C2 (centres unmarked) [Analog 7, 2-((1-((3-chloropyridin-4-yl)methyl)piperidin-4-yl)methyl)-5,6-dimethoxy-2,3-dihydro-1H-inden-1-one]
The IC50 of the first is 12-fold higher: 4.32 µM for the first, 0.364 µM for the second.

`COc1cc2c(cc1OC)C(=O)C(CC1CCN(Cc3ccc(C)nc3)CC1)C2` (centres unmarked) [Analog 12, 5,6-dimethoxy-2-((1-((6-methylpyridin-3-yl)methyl)piperidin-4-yl)methyl)-2,3-dihydro-1H-inden-1-one] and `COc1cc2c(cc1OC)C(=O)C(CC1CCN(Cc3cccnc3Br)CC1)C2` (centres unmarked) [Analog 11, 2-((1-((2-bromopyridin-3-yl)methyl)piperidin-4-yl)methyl)-5,6-dimethoxy-2,3-dihydro-1H-inden-1-one] are within 1.5-fold of each other in IC50: 0.928 µM for the first, 1.12 µM for the second.

Compared with `COc1cc2c(cc1OC)C(=O)C(CC1CCN(Cc3cccnc3F)CC1)C2` (centres unmarked) [Analog 9, 2-((1-((2-fluoropyridin-3-yl)methyl)piperidin-4-yl)methyl)-5,6-dimethoxy-2,3-dihydro-1H-inden-1-one], `COc1cc2c(cc1OC)C(=O)C(CC1CCN(Cc3ccnc4ccccc34)CC1)C2` (centres unmarked) [Analog 4, 5,6-dimethoxy-2-((1-(quinolin-4-ylmethyl)piperidin-4-yl)methyl)-2,3-dihydro-1H-inden-1-one] is 2-fold lower in IC50: 0.718 µM for the first, 0.356 µM for the second.

Target: T1, electric eel AChE
Assay: Kinetic analysis of AChE inhibition
Assay type: biochemical
Conditions: not given

In the case of `COc1cc2c(cc1OC)C(=O)C(CC1CCN(Cc3cccnc3)CC1)C2` (centres unmarked) [Analog 2, 5,6-dimethoxy-2-((1-(pyridin-3-ylmethyl)piperidin-4-yl)methyl)-2,3-dihydro-1H-inden-1-one], the Ki is reported as 0.062 µM.

Same assay, conditions: Lineweaver-Burke double reciprocal plot, electric eel AChE

With `COc1cc2c(cc1OC)C(=O)C(CC1CCN(Cc3cccnc3)CC1)C2` (centres unmarked) [Analog 2, 5,6-dimethoxy-2-((1-(pyridin-3-ylmethyl)piperidin-4-yl)methyl)-2,3-dihydro-1H-inden-1-one] the type of inhibition was “mixed-type inhibition”.

Source: PMC8881002 (Journal of molecular structure, 2021)
